Reference: PubChem BioAssay (NCI)
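1) Cells in 96-well plates. 2) Compound, 48 h, 5 concentrations. 3) Linear interpolation between surrounding doses. 4) Unreached endpoint = highest concentration. TGI: concentration producing complete growth inhibition.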

What was measured:
Test in all cases: NCI anticancer screen, dose series, 48 h
DU-145 prostate = tested on: DU-145 prostate
SNB-19 CNS = tested on: SNB-19 CNS
OVCAR-3 ovarian = tested on: OVCAR-3 ovarian
OVCAR-8 ovarian = tested on: OVCAR-8 ovarian
RPMI-8226 leukemia = tested on: RPMI-8226 leukemia
NCI-H23 lung = tested on: NCI-H23 lung
M14 melanoma = tested on: M14 melanoma
HCT-15 colon = tested on: HCT-15 colon
COLO 205 colon = tested on: COLO 205 colon
UACC-62 melanoma = tested on: UACC-62 melanoma
MCF7 breast = tested on: MCF7 breast
OVCAR-4 ovarian = tested on: OVCAR-4 ovarian
RXF 393 renal = tested on: RXF 393 renal
ACHN renal = tested on: ACHN renal
EKVX NSCLC = tested on: EKVX NSCLC
UO-31 renal = tested on: UO-31 renal
TK-10 renal = tested on: TK-10 renal
MALME-3M melanoma = tested on: MALME-3M melanoma
UACC-257 melanoma = tested on: UACC-257 melanoma
LOX IMVI melanoma = tested on: LOX IMVI melanoma
HCT-116 colon = tested on: HCT-116 colon
786-0 renal = tested on: 786-0 renal
SW-620 colon = tested on: SW-620 colon
CAKI-1 renal = tested on: CAKI-1 renal
HS 578T breast = tested on: HS 578T breast
SK-MEL-5 melanoma = tested on: SK-MEL-5 melanoma
MDA-MB-435 = tested on: MDA-MB-435
HCC-2998 colon = tested on: HCC-2998 colon
SK-OV-3 ovarian = tested on: SK-OV-3 ovarian
SK-MEL-28 melanoma = tested on: SK-MEL-28 melanoma
HOP-62 NSCLC = tested on: HOP-62 NSCLC
MDA-MB-231 breast = tested on: MDA-MB-231 breast
A498 renal = tested on: A498 renal
SF-268 CNS = tested on: SF-268 CNS
U251 CNS = tested on: U251 CNS
IGROV1 ovarian = tested on: IGROV1 ovarian
NCI/ADR-RES ovarian = tested on: NCI/ADR-RES ovarian
HL-60(TB) leukemia = tested on: HL-60(TB) leukemia
KM12 colon = tested on: KM12 colon
CCRF-CEM leukemia = tested on: CCRF-CEM leukemia
T-47D breast = tested on: T-47D breast
OVCAR-5 ovarian = tested on: OVCAR-5 ovarian
SNB-75 CNS = tested on: SNB-75 CNS
NCI-H522 lung = tested on: NCI-H522 lung
K-562 leukemia = tested on: K-562 leukemia
NCI-H226 lung = tested on: NCI-H226 lung
HT29 colon = tested on: HT29 colon
MOLT-4 leukemia = tested on: MOLT-4 leukemia
A549 NSCLC = tested on: A549 NSCLC
MDA-N = tested on: MDA-N
SK-MEL-2 melanoma = tested on: SK-MEL-2 melanoma
SF-295 CNS = tested on: SF-295 CNS
SN12C renal = tested on: SN12C renal
PC-3 prostate = tested on: PC-3 prostate
NCI-H460 lung = tested on: NCI-H460 lung
SR leukemia = tested on: SR leukemia
SF-539 CNS = tested on: SF-539 CNS
HOP-92 NSCLC = tested on: HOP-92 NSCLC

Measured: TGI

CC(=O)NCC1(c2ccccc2)CCN(CC2COc3ccccc3O2)CC1 (configuration not stated)
not listed: HOP-92 NSCLC
> 100 µM: all other assays above

C[C@@H]1C[C@@H](O)[C@@]2(O)C13CC(=O)OC(C3)[C@@H](C)[C@@]2(C)CO (some centres not stated)
not listed: CAKI-1 renal | CCRF-CEM leukemia | SNB-75 CNS
> 100 µM: all other assays above
